According to patent publication US20250109127A1, “METHODS OF USE OF PHENOXYPROPYLAMINE COMPOUNDS TO TREAT DEPRESSION” (Minerva Neurosciences, Inc., priority 2013, published 2025):
Values joined by “and” are separate entries in the source; they are usually repeats but may differ in a detail not shown here. Identical values can stand only once. Counter-ions that a name gives are not always drawn.

Test system: HVA release in the rat prefrontal cortex
Experiment: Microdialysis: HVA release in prefrontal cortex after I.P. administration
Format: in vivo
Conditions: for HVA release, individual animals / HVA release, MEAN: 0.3 mg/kg I.P.; for HVA release, individual animals: one column per animal R#11,12,18,23,29,30,17,24, hydrochloride; for HVA release, MEAN / HVA release (% of basal levels) measured in dialysates, MEAN: n = 8; for HVA release (% of basal levels) measured in dialysates, MEAN: SON-117 3 mg/kg IP
Protocol: The aim of the study was to evaluate, using microdialysis, the effects of an intraperitoneal (I.P.) administration in rats of three different doses of SON-117 on dopamine and its metabolites, serotonin and its metabolite (5-HIAA), and norepinephrine levels in prefrontal cortex.
Thirty-two adult male Wistar rats were used for the whole study (4 groups of eight animals planned for the study, Table 1).
Surgery was performed on rats weighing about 300 g at the beginning of the experiments. Rats were anaesthetized with Ketamine (50 mg/kg) & Xylazine (15 mg/kg) by intramuscular administration. The animals were placed in a stereotaxic apparatus in the flat-skull position at a constant setting of −3.3 mm between ear bars and the incisor bar. The animals were treated with a local anesthesic (xylocaine 1%, Astra Zeneca) and an analgesic (Temgesic, from Schering Plough, 0.05 mg/kg, s.c.). A rostrocaudal midline incision was made with a lancet to expose the dorsal skull surface. The “stereotaxic zero” was defined by the Bregma in accordance with Paxinos and Watson's atlas (1986). A hole was drilled in the skull with a drill and the meninges were pierced with a sterile needle to implant a CMA12 guide cannula which later received the dialysis probe.
Coordinates used for implanting guide cannula in prefrontal cortex from Bregma were anteroposterior 3.7 mm, mediolateral 0.8 mm, and dorsoventral −2 mm (top of the probe was at −5 mm). The guide cannula was fixed to the skull with two stainless steel screws (1.88 mm outside diameter) anchored. An application of dental cement was added. A plastic collar allowed each animal to be tethered to a Swivel assembly of the CMA 120 awake animal system. Following surgery, rats were kept in individual cages and allowed to recover for a minimum of 3-5 days before the experimentation. The rats were handled and put in plastic bowl for 10 min at least every day to habituate the animals to their new environment for the dialysis. An I.P. administration with saline was also performed every day.
Dialysis probes (CMA12/3 mm, membrane, 20 kD cut-off, Carnegie Medicine, Stockholm, Sweden), were carefully washed before inserting into the guide cannula. The wash was performed with the artificial cerebrospinal fluid (aCSF) medium (NaCl 147 mM, KCl 2.7 mM, CaCl2 1.2 mM, MgCl2 0.85 mM) at room temperature. The dialysis system was then equilibrated at 20° C. at a perfusion rate of 1 μl/min with a Carnegie pump (CMA100). All catheters (FEP tubing, internal volume of 1.2 μl/10 cm, and tubing adaptors) used for microdialysis were treated in the same conditions.
The probes duly prepared were inserted into the guide cannula and the CMA120 Swivel assembly secured to the animal using a plastic collar. Flow through the dialysis probe with aCSF was maintained at a rate of 1 μl/min during the whole experimentation. The first four fractions (corresponding to 2 hours) were discarded to avoid the effects of parenchymal disturbance and to ensure that an approximate steady-state level was reached. Fractions were then collected over a period of 8.5 h during which time the animals remained quiet. The dialysates were automatically collected with an autosampler (microfraction collector CMA 140, Carnegie Medicin) and stored at −80° C. until analysis. […] Perfusion was then maintained for 7 hours with aCSF. The dialysates (30 μl) were collected into 300 μl vials, transferred into dry ice and then kept frozen (−80° C.) until analysis. Frozen samples were shipped to a partner for analysis. At the end of the microdialysis study, a PBS with colored ink was perfused through the probe in order to visualize the dialyzed area.
Catecholamine assay: Concentrations of dopamine, DOPAC, HVA, 5-HIAA, 5-HT, and norepinephrin were determined for each sample by HPLC coupled with electrochemical detection.

Q: With `Cc1nnc(-c2cc3c(OC[C@@H](O)CN4CCC(c5ccc(Cl)c(Cl)c5)CC4)cccc3o2)o1` [SON-117, (S)-1-(4-(3,4-dichlorophenyl)piperidino)-3-(2-(5-methyl-1,3,4-oxadiazol-2-yl)benzo(b)furan-4-yloxy)-2-propanol hydrochloride] as the compound, how does the “HVA release, individual animals” value (T2 h-T2 h 30) read?
A: 68.39 % of respective basal and 70.39 % of respective basal and 95.76 % of respective basal and 101.52 % of respective basal and 72.96 % of respective basal and 85.03 % of respective basal and 97.42 % of respective basal and 91.18 % of respective basal

Q: And the “HVA release, MEAN” value (T3 h 30-T4 h)?
A: 90.45 % of respective basal

Q: What about the “HVA release, individual animals” value (T3 h 30-T4 h) of the same compound?
A: 64.18 % of respective basal and 83.25 % of respective basal and 133.74 % of respective basal and 64.93 % of respective basal and 107.52 % of respective basal and 70.49 % of respective basal and 109.07 % of respective basal

Q: What about the “HVA release, MEAN” value (T3 h-T3 h 30) of the same compound?
A: 85.22 % of respective basal

Q: And the “HVA release, individual animals” value (T3 h-T3 h 30)?
A: 63.81 % of respective basal and 90.24 % of respective basal and 111.62 % of respective basal and 62.71 % of respective basal and 98.55 % of respective basal and 74.57 % of respective basal and 95.05 % of respective basal

Q: What about the “HVA release, MEAN” value (T4 h 30-T5 h) of the same compound?
A: 85.23 % of respective basal

Q: What about the “HVA release, individual animals” value (T4 h 30-T5 h) of the same compound?
A: 91.96 % of respective basal and 80.15 % of respective basal and 68.04 % of respective basal and 115.19 % of respective basal and 50.60 % of respective basal and 77.44 % of respective basal and 98.06 % of respective basal and 100.39 % of respective basal

Q: What about the “HVA release, MEAN” value (T4 h-T4 h 30) of the same compound?
A: 85.20 % of respective basal

Q: And the “HVA release, individual animals” value (T4 h-T4 h 30)?
A: 92.27 % of respective basal and 67.44 % of respective basal and 79.90 % of respective basal and 118.84 % of respective basal and 74.80 % of respective basal and 79.15 % of respective basal and 73.39 % of respective basal and 95.82 % of respective basal

Q: And the “HVA release, MEAN” value (T5 h 30-T6 h)?
A: 83.81 % of respective basal

Q: And the “HVA release, individual animals” value (T5 h 30-T6 h)?
A: 88.34 % of respective basal and 70.37 % of respective basal and 54.74 % of respective basal and 111.90 % of respective basal and 57.33 % of respective basal and 69.05 % of respective basal and 120.47 % of respective basal and 98.25 % of respective basal

Q: What about the “HVA release, MEAN” value (T5 h-T5 h 30) of the same compound?
A: 72.11 % of respective basal

Q: What about the “HVA release, individual animals” value (T5 h-T5 h 30) of the same compound?
A: 33.79 % of respective basal and 37.83 % of respective basal and 125.18 % of respective basal and 104.80 % of respective basal and 54.92 % of respective basal and 81.46 % of respective basal and 45.38 % of respective basal and 93.54 % of respective basal

Q: What about the “HVA release, MEAN” value (T6 h 30-T7 h) of the same compound?
A: 82.40 % of respective basal

Q: What about the “HVA release, individual animals” value (T6 h 30-T7 h) of the same compound?
A: 80.98 % of respective basal and 79.92 % of respective basal and 57.44 % of respective basal and 123.91 % of respective basal and 59.14 % of respective basal and 77.28 % of respective basal

Q: What about the “HVA release, MEAN” value (T6 h-T6 h 30) of the same compound?
A: 78.87 % of respective basal

Q: And the “HVA release, individual animals” value (T6 h-T6 h 30)?
A: 80.55 % of respective basal and 69.54 % of respective basal and 51.01 % of respective basal and 121.49 % of respective basal and 63.35 % of respective basal and 86.74 % of respective basal and 63.13 % of respective basal and 95.14 % of respective basal

Q: What about the “HVA release, MEAN” value (T-30 min-T0 (before administration)) of the same compound?
A: 101.32 % of respective basal

Q: And the “HVA release, MEAN” value (T-1 h 30-T-1 h (before administration))?
A: 95.27 % of respective basal

Q: And the “HVA release, MEAN” value (T-1 h-T-30 min (before administration))?
A: 103.42 % of respective basal

Q: And the “HVA dialysate levels vs mean pre-administration value” (SON-117 0.1 mg/kg I.P.)?
A: no statistically significant differences

Q: What about the “HVA dialysate levels vs mean pre-administration value” (SON-117 0.3 mg/kg IP) of the same compound?
A: no statistically significant differences

Q: And the “HVA release (% of basal levels) measured in dialysates, MEAN” value (T0-T30 min)?
A: 94.34 % of basal levels

Q: What about the “HVA release (% of basal levels) measured in dialysates, MEAN” value (T30-T1 h) of the same compound?
A: 98.30 % of basal levels
